Test: mn = molality of the nth substance listed, in mol/kg
Conditions: 298.15 K, 101 kPa, Liquid, Rudolph densimeter

[Cl-].[Cl-].[Mg+2] [magnesium chloride] + CO
Conditions | mass density [kg/m3]
m1 = 0.0105 | 788.19
m1 = 0.021 | 789.37
m1 = 0.0316 | 790.72
m1 = 0.0422 | 791.97
m1 = 0.0528 | 793.43
m1 = 0.0581 | 794.28
m1 = 0.0634 | 795.32
m1 = 0.0687 | 796.28
m1 = 0.074 | 796.94
m1 = 0.0794 | 797.82
m1 = 0.0847 | 798.59
m1 = 0.09 | 799.4
m1 = 0.0954 | 800.16

O=[N+]([O-])[O-].O=[N+]([O-])[O-].[Zn+2] [nitric acid, zinc salt] + CO
Conditions | mass density [kg/m3]
m1 = 0.0053 | 787.73
m1 = 0.0106 | 788.43
m1 = 0.0159 | 789.11
m1 = 0.0212 | 789.81
m1 = 0.0265 | 790.47
m1 = 0.0292 | 790.79
m1 = 0.0319 | 791.13
m1 = 0.0346 | 791.46
m1 = 0.0372 | 791.79
m1 = 0.0399 | 792.11
m1 = 0.0426 | 792.44
m1 = 0.0453 | 792.76
m1 = 0.048 | 793.07
m1 = 0.0507 | 793.39
m1 = 0.0533 | 793.72
m1 = 0.0804 | 796.87

O=[N+]([O-])[O-].O=[N+]([O-])[O-].[Mg+2] [magnesium nitrate] + CO
Conditions | mass density [kg/m3]
m1 = 0.0067 | 787.75
m1 = 0.0135 | 788.44
m1 = 0.0203 | 789.09
m1 = 0.0271 | 789.77
m1 = 0.0339 | 790.43
m1 = 0.0373 | 790.75
m1 = 0.0407 | 791.07
m1 = 0.0441 | 791.39
m1 = 0.0475 | 791.72
m1 = 0.051 | 792.03
m1 = 0.0544 | 792.33
m1 = 0.0578 | 792.66
m1 = 0.0612 | 792.95
m1 = 0.0647 | 793.26
m1 = 0.0681 | 793.56
